Data as given in patent publication US8779156B2, “Analogues for the treatment or prevention of flavivirus infections” (Vertex Pharmaceuticals Incorporated, priority 2010, dated 2014).

Tests used:
[1] = system: sub-genomic HCV replicon of genotype 1a (cell line W11.8); experiment: Activity determination using the ELISA and the sub-genomic replicon 1a cell line (NS5A protein level); assay type: cell-based; details: Hepatitis C virus
Excerpt: Activity Determination Using the ELISA and the Sub-Genomic Replicon 1a Cell Line
The cell line W11.8 containing the sub-genomic HCV replicon of genotype 1a is used to determine the potency of the drugs. The RNA replication in presence of different drug concentrations is indirectly measured in this cell line by the level of NS5A protein content upon drug treatment for four days. It is shown that the level of the NS5A protein correlates well with the level of HCV RNA in the replicon cell line. Cells are split twice a week in order to keep the confluence state below 85% of the culture flask surface area. The culture media used for cell passaging consists of DMEM-10% foetal bovine serum with 100 UI/mL penicillin, 100 μg/mL streptomycin, 2 mM glutamine, 1 mM sodium pyruvate, non-essential amino acids (1×) and 600 μg/mL of G418 final concentrations. Monolayer of the W11.8 cells is trypsinized and cells are counted. Cells are diluted at 50,000 cells/mL with complete DMEM without G418, then approximately 5,000 viable cells (100 μL) are plated per well in a white opaque 96-well microtiter plate. After an incubation period of 2-4 hours at 37° C. in a 5% CO2 incubator, compounds are added at various concentrations. Drugs are resuspended in DMSO at a stock concentration of 10 mM. Then, drugs are serially diluted at twice the final concentration in the same medium. One volume (100 μL) of each drug dilution is then added to each well that contains cells. A control compound is used as an internal standard for each plate assay. Sixteen wells are used as control (0% inhibition) without drug. […] Values from 100% inhibited wells were averaged and used as the background value. Cells are further incubated for four days at 37° C. in a 5% CO2 incubator. Following the incubation time of four days, the media is removed and wells are washed once with 150 μL of PBS at room temperature for five minutes. Cells are then fixed for five minutes using 150 μL per well of cold (−20° C.) fixative solution (50% methanol/50% acetone mix). Cells are then washed twice with 150 μL of PBS (phosphate buffered saline) per well, following the addition of 150 μL of blocking solution, cells are incubated for one hour at 37° C. to block non-specific sites. The blocking solution is removed and cells are washed twice with 150 μL of PBS per well and once with 150 μL of PBSTS solution (PBS/0.1% Triton X-100/0.02% SDS) per well. […] Then, substrate solution (100 μl, SuperSignal ELISA Pico Chemiluminescent Substrate, Fisher Cat. No. 37069) is added in each well and plates are incubated 60 minutes at room temperature prior to reading the luminescence (relative light units) on the Analyst HT plate reader. The percentage of inhibition at each drug concentration tested (in duplicate) is calculated.

[2] = system: HCV (1b) replicon, Huh-ET cells; experiment: Cell-based luciferase reporter HCV (1b) RNA replication assay; details: Hepatitis C virus; for EC50: 96 h, HCV 1b replicon, luciferase, 4 days incubation, read-out: EC50_1b; for IC50: sub-genomic replicon 1b cell line
Excerpt: Cell-Based Luciferase Reporter HCV (Ib) RNA Replication Assay Cell Culture
Replicon cell lines Huh-5.2 are derived from the Huh-7 hepatocarcinoma cell line are maintained in culture as generally described in Krieger, N; Lohmann, V; Bartenschlager, R. Enhancement of hepatitis C virus RNA replication by cell culture-adaptive mutations. J. Virol. 2001, 75, 4614-4624. The Huh-5.2 cells contain the highly cell culture-adapted replicon I389luc-ubi-neo/NS3-375.1 construct that carries, in addition to the neomycin gene, an integrated copy to the firefly luciferase gene (Krieger, N; Lohmann, V; Bartenschlager, R. Enhancement of hepatitis C virus RNA replication by cell culture-adaptive mutations. J. Virol. 2001, 75, 4614-4624). This cell line allows measurement of HCV RNA replication and translation by measuring luciferase activity. It has been previously shown that the luciferase activity tightly follows the replicon RNA level in these cells (Krieger, N; Lohmann, V; Bartenschlager, R. Enhancement of hepatitis C virus RNA replication by cell culture-adaptive mutations. J. Virol. 2001, 75, 4614-4624). The Huh-ET cell line has the same features as those mentioned for Huh-5.2 cell line, except that ET cells are more robust and contain an adaptative mutation in the HCV NS4B gene instead of NS5A. Both cell lines are maintained in cultures at a sub-confluent level (<85%) as the level of replicon RNA is highest in actively proliferating cells. The culture media used for cell passaging consist of DMEM (Gibco BRL Laboratories, Mississauga, ON, Canada) supplemented with 10% foetal bovine serum with 1% penicilin/streptomycin, 1% glutamine, 1% sodium pyruvate, 1% non-essential amino acids, and 180 μg/ml of G418 final concentration. Cells are incubated at 37° C., in an atmosphere of 5% CO2 and passaged twice a week to maintain sub-confluence.
Approximately 3000 viable Huh-ET cells (100 μl) are plated per well in a white opaque 96-well microtiter plate. The cell culture media used for the assay is the same as described above except that it contains no G418 and no phenol red. After an incubation period of 3-4 hours at 37° C. in a 5% CO2 incubator, compounds (100 μl) are added at various concentrations. Cells are then further incubated for 4 days at 37° C. in a 5% CO2 incubator. Thereafter, the culture media is removed and cells are lysed by the addition of 95 μL of the luciferase buffer (luciferin substrate in buffered detergent). Cell lysates are incubated at room temperature and protected from direct light for at least 10 minutes. Plates are read for luciferase counts using a luminometer (Wallac MicroBeta Trilux, Perkin Elmer™, MA, USA).
Curves are fitted to data points using nonlinear regression analysis, and IC50s are interpolated from the resulting curve using GraphPad Prism software, version 2.0 (GraphPad Software Inc., San Diego, Calif., USA).

Compound	IC50 [1]	EC50 [2]	IC50 [2]
COC(=O)NC(C(=O)N1[C@@H](C)CC[C@H]1c1nc2cc(-c3ccc(-c4ccc(-c5cnc([C@@H]6CC[C@H](C)N6C(=O)[C@@H](NC(=O)OC)C(C)C)[nH]5)cc4)cc3)ccc2[nH]1)C(C)C (stereo partly drawn) [Compound 13, Methyl N-[(1S)-1-[(2S,5S)-2-[4-[4-[4-[2-[(2S,5S)-1-[2-(methoxycarbonylamino)-3-methyl-butanoyl]-5-methyl-pyrrolidin-2-yl]-1H-benzimidazol-5-yl]phenyl]phenyl]-1H-imidazol-2-yl]-5-methyl-pyrrolidine-1-carbonyl]-2-methyl-propyl]carbamate]	36 pM	≤ 5 nM	2.6 pM
COC(=O)N[C@H](C(=O)N1C[C@@H](C)C[C@H]1c1nc(-c2ccc(-c3ccc(-c4ccc5[nH]c([C@@H]6CC[C@H](C)N6C(=O)[C@@H](NC(=O)OC)C(C)C)nc5c4)cc3)cc2)c[nH]1)C(C)C [Compound 18]	8.5 pM	≤ 5 nM	8.5 pM
COC(=O)N[C@H](C(=O)N1CCC[C@H]1c1ncc(-c2ccc(-c3ccc(-c4ccc5[nH]c([C@@H]6CCCN6C(=O)[C@@H](NC(=O)OC)C(C)C)nc5c4)cc3)cc2)[nH]1)C(C)C [Compound 4, ((S)-1-{(S)-2-[5-(4′-{2-[(S)-1-((S)-2-Methoxycarbonylamino-3-methyl-butyryl)-pyrrolidin-2-yl]-3H-benzoimidazol-5-yl}-biphenyl-4-yl)-1H-imidazol-2-yl]-pyrrolidine-1-carbonyl}-2-methyl-propyl)-carbamic acid methyl ester]	140 pM	≤ 5 nM	13 pM
